Data set [1] in a line: H+/Na+ transport assay of bead-derived peptides (one-point).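 Also: relative to parent gramicidin A activity set to 1.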 Type of data set: biochemical. More on the design: key: relative activity; mean of two control wells = 1.00. Particulars: bead-derived peptide solution, EYPC/EYPG LUVs. The method, boiled down: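 Values are normalized fluorescence, with Triton X-100 defining 100% and untreated LUVs 0%, and the two control wells averaging 1.00. Vesicles carried 1.0 mM pyranine and included egg yolk phosphatidylglycerol. Peptides were incubated with them 30 min at room temperature.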

For data set [2], the system named is P388 mouse leukemia cells. The settings on record: 92 h. The method, boiled down: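 First, library peptide stocks are diluted 250-fold in RPMI1640 with 10% heat-inactivated FBS. Next, they are mixed with P388 cells to give 1 × 10^4 cells/mL and incubated 92 h at 37 °C, 5% CO2. Finally, viability (%) is scored by WST-1 absorbance at 415 nm.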
Data set [3] relates to Streptococcus pyogenes SSI-9. The data set is described as follows: Antibacterial activity assay of bead-derived peptides (three concentrations). Type of data set: cell-based. Particulars: S. pyogenes, bead-derived peptide solution, three concentrations. Also noted: key: +++: inhibition by the 640-fold diluted peptide solution; ++: inhibition by the 160-fold diluted solution; +: inhibition by the 40-fold diluted solution; -: no inhibition. The gist of the method:
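Bead-derived library peptide stocks in DMSO were tested undiluted and after 4- and 16-fold DMSO dilution against S. pyogenes SSI-9 (2 × 10^5 CFU/well) in cation-adjusted Mueller Hinton Broth with 5% laked horse blood. After 18 h at 37 °C, wells were scored for precipitation of grown cells.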

Each structure is given as a SMILES string. Where a SMILES comes first, the peptide text is derived from it. [ ]: non-standard residue; d: D form. The star is where a group is joined. NHCH2CH2OH = OCCN*; For = O=C*

As for `CC(C)C[C@@H](NC(=O)[C@H](C)NC(=O)CNC(=O)[C@@H](NC=O)C(C)C)C(=O)N[C@@H](C)C(=O)N[C@@H](C(=O)N[C@H](C(=O)N[C@H](CC(C)C)C(=O)N[C@@H](Cc1c[nH]c2ccccc12)C(=O)N[C@@H](C(=O)N[C@@H](Cc1c[nH]c2ccccc12)C(=O)N[C@H](CC(C)C)C(=O)N[C@@H](Cc1c[nH]c2ccccc12)C(=O)N[C@H](CC(C)C)C(=O)N[C@@H](Cc1c[nH]c2ccccc12)C(=O)NCCO)C(C)C)C(C)C)C(C)C` [compound 8464] (For-VGA[dL]A[dV]V[dL]W[dV]W[dL]W[dL]W-NHCH2CH2OH), the “H+/Na+ transport activity normalized against the value of 1 (1.00)” value (shortened to “H+/Na+ transport activity normalized”) in data set [1] is recorded as 1.23. The same compound registered a cell viability/% in data set [2] of 4.1%. For the same compound, the antibacterial activity entry in data set [3] is “-”.

As to `CC(C)C[C@@H](NC(=O)[C@H](C)NC(=O)CNC(=O)[C@@H](NC=O)C(C)C)C(=O)N[C@@H](C)C(=O)N[C@H](CC(C)C)C(=O)N[C@H](C(=O)N[C@@H](C(=O)N[C@@H](Cc1c[nH]c2ccccc12)C(=O)N[C@@H](C(=O)N[C@@H](Cc1c[nH]c2ccccc12)C(=O)N[C@@H](C(=O)N[C@@H](Cc1c[nH]c2ccccc12)C(=O)N[C@H](CC(C)C)C(=O)N[C@@H](Cc1c[nH]c2ccccc12)C(=O)NCCO)[C@H](C)O)C(C)C)C(C)C)C(C)C` [compound 8498] (For-VGA[dL]A[dL]V[dV]W[dV]W[dT]W[dL]W-NHCH2CH2OH), the “H+/Na+ transport activity normalized” value in data set [1] amounted to 1.01. Moreover, the cell viability/% in data set [2] worked out at 52.6%. Further, the antibacterial activity result in data set [3] is “-”.

As to `CNC(=O)C[C@@H](NC(=O)[C@H](C)NC(=O)[C@@H](CC(C)C)NC(=O)[C@H](C)NC(=O)CNC(=O)[C@@H](NC=O)C(C)C)C(=O)N[C@H](C(=O)N[C@@H](C(=O)N[C@@H](Cc1c[nH]c2ccccc12)C(=O)N[C@H](CC(C)C)C(=O)N[C@@H](Cc1c[nH]c2ccccc12)C(=O)N[C@@H](C(=O)N[C@@H](Cc1c[nH]c2ccccc12)C(=O)N[C@H](CC(C)C)C(=O)N[C@@H](Cc1c[nH]c2ccccc12)C(=O)NCCO)C(C)C)C(C)C)C(C)C` [compound 8535] (For-VGA[dL]A[dD](NHMe)V[dV]W[dL]W[dV]W[dL]W-NHCH2CH2OH), in data set [1], the “H+/Na+ transport activity normalized” value came to 1.28. In data set [2], this compound displayed a cell viability/% of 71.4%. Besides, the antibacterial activity result in data set [3] is listed as “-”.

Take `CC(C)[C@H](NC=O)C(=O)NCC(=O)N[C@@H](C)C(=O)N[C@@H](C(=O)N[C@@H](C)C(=O)N[C@@H](C(=O)N[C@H](C(=O)N[C@@H](C(=O)N[C@@H](Cc1c[nH]c2ccccc12)C(=O)N[C@@H](C(=O)N[C@@H](Cc1c[nH]c2ccccc12)C(=O)N[C@@H](C(=O)N[C@@H](Cc1c[nH]c2ccccc12)C(=O)N[C@@H](C(=O)N[C@@H](Cc1c[nH]c2ccccc12)C(=O)NCCO)C(C)C)C(C)C)C(C)C)C(C)C)C(C)C)C(C)C)[C@H](C)O` [compound 8545] (For-VGA[dT]A[dV]V[dV]W[dV]W[dV]W[dV]W-NHCH2CH2OH): the “H+/Na+ transport activity normalized” value in data set [1] turned out to be 1.01. This compound displayed a cell viability/% in data set [2] of 83.1%. For the same compound, in data set [3], the antibacterial activity result is reported as “-”.

Consider `CNC(=O)C[C@@H](NC(=O)[C@H](Cc1c[nH]c2ccccc12)NC(=O)[C@H](NC(=O)[C@H](Cc1c[nH]c2ccccc12)NC(=O)[C@H](NC(=O)[C@H](Cc1c[nH]c2ccccc12)NC(=O)[C@@H](CC(C)C)NC(=O)[C@@H](NC(=O)[C@H](NC(=O)[C@H](C)NC(=O)[C@@H](CC(C)C)NC(=O)[C@H](C)NC(=O)CNC(=O)[C@@H](NC=O)C(C)C)C(C)C)C(C)C)C(C)C)C(C)C)C(=O)N[C@@H](Cc1c[nH]c2ccccc12)C(=O)NCCO` [compound 8567] (For-VGA[dL]A[dV]V[dL]W[dV]W[dV]W[dD](NHMe)W-NHCH2CH2OH), for which the “H+/Na+ transport activity normalized” value in data set [1] turned out to be 1.22. In addition, the cell viability/% in data set [2] amounted to 60.9%. Moreover, in data set [3], the antibacterial activity result was “-”.

The record behind these values is PMC7531004, “Discovery of gramicidin A analogues with altered activities by multidimensional screening of a one-bead-one-compound library” (Nature Communications, 2020).
